One may read the TGI as the concentration giving total growth inhibition.

Common to all, as to experiment: DTP human tumour cell line panel, 48 h
The subject of assay [1] is EKVX NSCLC.
The test system of assay [2] is ACHN renal.
Assay [3] deals with HOP-92 NSCLC.
Assay [4] deals with DU-145 prostate.
For assay [5], the system named is MDA-MB-435.
The test system of assay [6] is NCI-H522 lung.
The test system of assay [7] is SNB-75 CNS.
The subject of assay [8] is SK-MEL-2 melanoma.
The test system of assay [9] is SF-268 CNS.
For assay [10], the system named is SK-MEL-5 melanoma.
The subject of assay [11] is NCI-H226 lung.

Structures are written as SMILES.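 All cell lines were grown in 96-well plates and treated with compound for 48 hours. TGI: total growth inhibition.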 Some results are limits rather than exact numbers.

Regarding `O=C1/C(=C/c2ccco2)N=C(c2ccccc2)N1c1cc2cc(Sc3ccccc3)ccc2[nH]1`, the TGI in assay [1], in [2], in assay [3], in assay [4], in [5] and in assay [6] was above 25 µM throughout. Moreover, the TGI in [7], in assay [8] and in [9] was above 25 µM each time.

As to `COc1ccc2c(c1)CCC1=CC3(CCC12C)SCCS3` (configuration not stated), the TGI in assay [2], in assay [3], in [4], in [5], in assay [6] and in [7] was above 10 µM in each case. The TGI in assay [9] and in [10] was above 10 µM each time.

As for `Cn1c2cc(O)cc(O)c2c(=O)c2c([N+](=O)[O-])cccc21`, the TGI in assay [1], in [2], in assay [3], in assay [11], in [6] and in assay [7] was above 100 µM in each case. Moreover, the TGI in [8], in assay [9] and in [10] was above 100 µM throughout.

`COC(=O)[C@@]12OC[C@]34C([C@@H](O)C1O)[C@@]1(C)CC(=O)C(OC(=O)/C=C(/c5ccccc5)C(F)(F)F)=C(C)C1C[C@H]3OC(=O)[C@H](O)[C@H]42` (some centres not stated): the TGI in assay [1] was above 50 µM; in assay [2] it was above 50 µM; in assay [3], 43.7 µM; in [11], 29.5 µM; in assay [6] it was 24.5 µM; in assay [7], 31.3 µM. In addition, the TGI in assay [8] is 27.4 µM; in assay [9], above 50 µM; in assay [10] it was 31.4 µM.

Consider `O=c1cc(-c2ccccc2)oc2cc(OCCSCCCCCCCCCCSCCOc3ccc4c(=O)cc(-c5ccccc5)oc4c3)ccc12`, for which the TGI in assay [1], in [2], in [3], in [6], in assay [7] and in assay [8] was above 100 µM throughout. Also, the TGI in [9] and in assay [10] was above 100 µM in each case.

Take `COC(=O)c1ccc(Cc2ccc(C(=O)OC)o2)o1`: the TGI in assay [1], in assay [2], in assay [3], in assay [11], in [6] and in assay [8] was above 378 µM in each case. The TGI in assay [9] and in assay [10] was above 378 µM throughout.

Regarding `O=c1cc(-c2ccc(Cl)cc2)oc2cc(OCCCOc3ccc4c(=O)cc(-c5ccc(Cl)cc5)oc4c3)ccc12`, the TGI in [1], in assay [2], in [3], in assay [11], in [6] and in assay [7] was above 100 µM each time. The TGI in assay [8], in [9] and in assay [10] was above 100 µM each time.

Consider `N#CC(Cc1ccccc1Br)N(CCC1=CCCCC1)C(c1ccccc1)c1ccccc1` (configuration not stated), for which the TGI is above 100 µM in [1]; above 100 µM in [2]; above 100 µM in [3]; above 100 µM in assay [4]; above 100 µM in [5]; 87 µM in assay [6]. Moreover, the TGI in [7], in [8], in assay [9] and in [10] was above 100 µM throughout.

On to `COc1cc2c(cc1OC)C(=O)C(C1=C(SC(=N)N)C(=O)c3cc(OC)c(OC)cc31)C2` (configuration not stated), for which the TGI in assay [1], in assay [2], in assay [11], in assay [6], in [7] and in assay [8] was above 100 µM in each case. Also, the TGI in [9] and in assay [10] was above 100 µM each time.

Consider `COc1cc(/C=C2/C(=O)N(C(=O)c3ccc(Cl)cc3)N=C2C)cc(OC)c1OC`, for which the TGI in [1], in [2], in [3], in assay [6], in [8] and in [9] was above 100 µM in each case. In assay [10], this compound gave a TGI above 100 µM.

As to `CN1CCC23c4c5ccc(O)c4OC2c2[nH]c4ccccc4c2CC3(O)C1C5` (configuration not stated), the TGI in assay [1] is above 100 µM; in assay [2], 65.1 µM; in assay [3], 40.5 µM; in assay [4] it was above 100 µM; in assay [5] it was 36.9 µM; in assay [6], above 100 µM. Moreover, the TGI is above 100 µM in assay [7], 39.9 µM in [8], above 100 µM in [9] and 27.1 µM in assay [10].

Regarding `Cc1ccc(O)c(C(=O)CCCC(=O)c2cc(C)ccc2O)c1`, the TGI in [1], in [2], in assay [3], in assay [11], in [6] and in [7] was above 100 µM throughout. Further, the TGI in [8], in assay [9] and in [10] was above 100 µM each time.

On to `O=C(O)c1ccccc1/C=N/NC1=NCCCCN1`, for which the TGI in [1], in [2], in [3], in [5], in assay [11] and in [6] was above 100 µM in each case. Further, the TGI in assay [7], in [8], in [9] and in [10] was above 100 µM throughout.

Turning to `Cc1c2c(n(CCN(C)C)c1C)NN=C(C#N)S2(=O)=O`, the TGI in assay [1], in assay [2], in assay [4], in assay [5], in assay [11] and in assay [7] was above 100 µM throughout. Besides, the TGI in [8] and in assay [9] was above 100 µM each time.
